pEC50: −log10 of the molar value. Where “and” joins values, the source holds several entries; their conditions need not be identical. Equal entries are not always repeated.
Experiments:
human β3-AR = molecular target: T1, human β3-AR (Homo sapiens, UniProt P13945); experiment: cAMP accumulation (SPA) in CHO cells transfected with human β3 adrenergic receptor; assay type: cell-based; details: for pEC50: CHO cells expressing human β3-AR, cAMP, 30 min incubation, 10^−9 M to 10^−5 M; for IA(β3): maximal response, IA=% activity compound/% activity isoproterenol at 10^−5 M
T1 construct: Full length β3 AR clones (402 amino acids) containing the last 6 amino acids of hβ3-AR; expressed in transfected cells; host or cells: CHO cells
Protocol: The ability of compounds of this invention to treat or inhibit disorders related to insulin resistance or hyperglycemia was confirmed with representative compounds of this invention in the following standard pharmacological test procedures, which measured the binding selectivity to the β1, β2, and β3 adrenergic receptors. Binding to the receptors was measured in Chinese Hamster ovary (CHO) cells that were transfected with adrenergic receptors. The following briefly summarizes the procedures used and results obtained.
Cloning of Human β3-AR Genomic DNA: cDNA was constructed by ligating four polymerase chain reaction (PCR) products using the following primers: an ATG-Narl fragment, sense primer 5′-[…]3′ and anti-sense primer 5′[…]3′; a Narl-Accl fragment, 5′[…]3′ as sense and 5′[…]3′ as anti-sense primer; an Accli-Styl fragment, sense primer 5′[…]3′ and anti-sense primer 5′[…]3′ and a Styl-TAG fragment, with sense primer 5′[…]3′ and anti-sense primer 5′[…]3′. The corresponding primer sequences are described in Mantzoros, C. S., et. al., Diabetes 45: 909-914 (1996). The four fragments are ligated into a pUC 18 plasmid (Gibco-BRL) and sequenced. Full length β3 AR clones (402 amino acids) containing the last 6 amino acids of hβ3-AR are prepared with the β3-βARpcDNA3 from ATTC.
Binding Procedure: Clones expressing receptor levels of 70 to 110 fmoles/mg protein were used in the test procedures. CHO cells were grown in 24-well tissue culture plates in Dulbecco's Modified Eagle Media with 10% fetal bovine serum, MEM non-essential amino acids, Penicillin-Streptompycin and Geneticin. On the day of test procedure, growth medium was replaced with preincubation media (Dulbecco's Modified Eagle Media and incubated for 30 minutes at 37° C. Preincubation medium was replaced with 0.2 ml treatment medium containing DMEM media containing 250 μM IBMX (isobutyl-1-methylxantine) plus 1 mM ascorbic acid with test compound dissolved in DMSO. Test compounds were tested over a concentration range of 10^−9 M to 10^−5 M for β3 cells and 10^−8 to 10^−4 M for β1 and β2 transfected cells. Isoproterenol (10^−5 M) was used as an internal standard for comparison of activity. Cells were incubated at 37° C. on a rocker for 30 min with the β3 cells and 15 min for β1 and β2 cells. Incubation was stopped with the addition of 0.2N HCl and neutralized with 2.5N NaOH. The plates, containing the cells and neutralized media, were stored at −20 degrees celsius until ready to test for cAMP using the SPA test kit (Amersham).
Data Analysis and Results: Data collected from the SPA test procedure were analyzed as per cent of the maximal isoproterenol response at 10^−5 M. Activity curves were plotted using the SAS statistical and graphics software.
IA=% activity compound/% activity isoproterenol

T1 sequence (P13945 whole entry): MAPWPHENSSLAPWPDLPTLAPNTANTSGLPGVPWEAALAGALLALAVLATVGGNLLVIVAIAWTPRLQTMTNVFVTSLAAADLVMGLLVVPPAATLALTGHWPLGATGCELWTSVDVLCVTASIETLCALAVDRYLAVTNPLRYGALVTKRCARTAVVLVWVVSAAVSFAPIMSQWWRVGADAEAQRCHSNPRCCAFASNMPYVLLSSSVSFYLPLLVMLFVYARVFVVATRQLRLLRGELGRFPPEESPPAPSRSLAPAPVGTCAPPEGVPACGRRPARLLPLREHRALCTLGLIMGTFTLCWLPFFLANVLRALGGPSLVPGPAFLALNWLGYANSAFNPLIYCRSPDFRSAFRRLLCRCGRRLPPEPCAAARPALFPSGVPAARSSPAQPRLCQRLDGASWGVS

Row | SMILES | melting point | pEC50 (human β3-AR) | IA(β3) (human β3-AR)
1 | CCCCCCNC(=O)Nc1cccnc1Nc1ccc(CCNC[C@H](O)COc2ccc(O)cc2)cc1 [Example 4, 1-Hexyl-3-[2-(4-{2-[(2S)-2-hydroxy-3-(4-hydroxy-phenoxy)-propylamino]-ethyl}-phenylamino)-pyridin-3-yl]-urea] | 61 to 64 °C |  | 
2 | CCCCCCNC(=O)Nc1ccc(-c2nc3cccnc3n2-c2ccc(CCNC[C@H](O)COc3ccc(O)cc3)cc2)cc1 (hydrate or solvate) [Example 15, N-hexyl-N′-(4-{3-[4-(2-{[(2S)-2-hydroxy-3-(4-hydroxyphenoxy)propyl]amino}ethyl)phenyl]-3H-imidazo[4,5-b]pyridin-2-yl}phenyl)urea] | 110 to 116 °C |  | 
3 | Nc1cccnc1Nc1ccc(CCNC[C@H](O)COc2ccc(O)cc2)cc1 (hydrate or solvate) [Example 2, 4-((2R)-3-{2-[4-(3-Amino-pyridin-2-ylamino)-phenyl]-ethylamino}-2-hydroxy-propoxy)-phenol] | 63 to 65 °C |  | 
4 | O=C(Nc1cccnc1Nc1ccc(CCNC[C@H](O)COc2ccc(O)cc2)cc1)c1ccccc1 [Example 6, N-[2-(4-{2-[(2S)-2-Hydroxy-3-(4-hydroxy-phenoxy)-propylamino]-ethyl}-phenylamino)-pyridin-3-yl]-benzamide] | 97 to 99 °C | 7.08 | 0.88
5 | O=[N+]([O-])c1cccnc1Nc1ccc(CCNC[C@H](O)COc2ccc(O)cc2)cc1 (hydrate or solvate) [Example 1, 4-((2S)-2-Hydroxy-3-{2-[4-(3-nitro-pyridin-2-ylamino)-phenyl]-ethylamino}-propoxy)-phenol] | 148 to 149 °C |  | 
6 | Nc1cccnc1Oc1ccc(CCNC[C@H](O)COc2ccc(O)cc2)cc1 [Example 5, 4-((2S)-3-{2-[4-(3-Amino-pyridin-2-yloxy)-phenyl]-ethylamino}-2-hydroxy-propoxy)-phenol] |  | 7.70 | 1.12
7 | Cc1ccn(-c2ccc(-c3nc4cccnc4n3-c3ccc(CCNCC(O)COc4ccc(O)cc4)cc3)c(Cl)c2)n1 (stereo not drawn) [Example 14, 4-{3-[2-(4-{2-[2-Chloro-4-(3-methyl-pyrazol-1-yl)-phenyl]-imidazo[4,5-b]pyridin-3-yl}-phenyl)-ethylamino]-2-hydroxy-propoxy}-phenol] | 87 to 89 °C | 7.27 | 0.086
8 | CCCCCCNC(=O)Nc1ccc(-c2nc3cccnc3n2-c2ccc(CCNC[C@H](O)COc3ccc(O)cc3)cc2)cc1 [Example 15, N-hexyl-N′-(4-{3-[4-(2-{[(2S)-2-hydroxy-3-(4-hydroxyphenoxy)propyl]amino}ethyl)phenyl]-3H-imidazo[4,5-b]pyridin-2-yl}phenyl)urea] |  | 7.15 | 1.05
9 | Oc1ccc(OC[C@@H](O)CNCCc2ccc(-n3cnc4cccnc43)cc2)cc1 (hydrate or solvate) [Example 3, 4-{(2S)-2-Hydroxy-3-[2-(4-imidazo[4,5-b]pyridin-3-yl-phenyl)-ethylamino]-propoxy}-phenol] | 49 to 52 °C |  | 
10 | Nc1cccnc1Nc1ccc(CCNCC(O)COc2ccc(O)cc2)cc1 (stereo in doubt) [Example 2, 4-((2R)-3-{2-[4-(3-Amino-pyridin-2-ylamino)-phenyl]-ethylamino}-2-hydroxy-propoxy)-phenol] |  | 7.14 | 1.01
11 | Oc1ccc(OC[C@@H](O)CNCCc2ccc(-n3cnc4cccnc43)cc2)cc1 [Example 3, 4-{(2S)-2-Hydroxy-3-[2-(4-imidazo[4,5-b]pyridin-3-yl-phenyl)-ethylamino]-propoxy}-phenol] |  | 7.02 | 0.76
12 | O=[N+]([O-])c1cccnc1Nc1ccc(CCNC[C@H](O)COc2ccc(O)cc2)cc1 [Example 1, 4-((2S)-2-Hydroxy-3-{2-[4-(3-nitro-pyridin-2-ylamino)-phenyl]-ethylamino}-propoxy)-phenol] |  | 6.49 | 0.65

Further lines, results first:

Row | melting point | pEC50 (human β3-AR) | IA(β3) (human β3-AR) | SMILES
13 | 62 to 64 °C | 7.24 | 1.12 | C=C(C)n1c(=O)n(-c2ccc(CCNC[C@H](O)COc3ccc(O)cc3)cc2)c2ncccc21 [Example 7, 3-(4-{2-[(2S)-2-Hydroxy-3-(4-hydroxy-phenoxy)-propylamino]-ethyl}-phenyl)-1-isopropenyl-1,3-dihydro-imidazo[4,5-b]pyridin-2-one]
14 | 100 to 102 °C | 8.22 | 0.96 | Oc1ccc(OC[C@@H](O)CNCCc2ccc(-n3c(-c4ccc(C5CCCCC5)cc4)nc4cccnc43)cc2)cc1 [Example 10, 4-[(2S)-3-(2-{4-[2-(4-Cyclohexyl-phenyl)-imidazo[4,5-b]pyridin-3-yl]-phenyl}-ethylamino)-2-hydroxy-propoxy]-phenol]
15 | 75 to 78 °C | 8.22 | 1.03 | CCc1ccc(-c2nc3cccnc3n2-c2ccc(CCNC[C@H](O)COc3ccc(O)cc3)cc2)cc1 [Example 8, 4-[(2S)-3-(2-{4-[2-(4-Ethyl-phenyl)-imidazo[4,5-b]pyridin-3-yl]-phenyl}-ethylamino)-2-hydroxy-propoxy]-phenol]
16 | 50 to 52 °C | 6.58 | 0.74 | CCCCCc1nc2cccnc2n1-c1ccc(CCNC[C@H](O)COc2ccc(O)cc2)cc1 [Example 9, 4-((2S)-2-Hydroxy-3-{2-[4-(2-pentyl-imidazo[4,5-b]pyridin-3-yl)-phenyl]-ethylaminol}-propoxy)-phenol]
17 | 115 to 117 °C | 8.30 and 7.82 |  | O=c1[nH]c2cccc(OCC(O)CNCCc3ccc(-n4c(CCC5CCCC5)nc5cccnc54)cc3)c2[nH]1 (stereo not drawn) [Example 12, 4-[3-(2-{4-[2-(2-Cyclopentyl-ethyl)-imidazo[4,5-b]pyridin-3-yl]-phenyl}-ethylamino) -2-hydroxy-propoxy]-1,3-dihydro-benzoimidazol-2-one]
18 | 93 to 95 °C |  |  | CCCCCCNC(=O)Nc1cccc(-c2nc3cccnc3n2-c2ccc(CCNCC(O)COc3ccc(O)cc3)cc2)c1 (stereo not drawn) (hydrate or solvate) [Example 16, 1-Hexyl-3-{3-[3-(4-{2-[2-hydroxy-3-(4-hydroxy-phenoxy)-propylamino]-ethyl}-phenyl)-3H-imidazo[4,5-b]pyridin-2-yl]-phenyl}-urea]
19 |  | 7.34 | 0.087 | CCCCCc1nc2cccnc2n1-c1ccc(CCNC[C@H](O)COc2cccc3[nH]c(=O)[nH]c23)cc1 [Example 13, 4-((2S)-2-Hydroxy-3-{2-[4-(2-pentyl-imidazo[4,5-b]pyridin-3-yl)-phenyl]-ethylaminol}-propoxy)-1,3-dihydro-benzoimidazol-2-one]
20 | 59 to 61 °C | 8.00 | 0.86 | Oc1ccc(OC[C@@H](O)CNCCc2ccc(-n3c(CCC4CCCC4)nc4cccnc43)cc2)cc1 [Example 11, 4-[(2S)-3-(2-{4-[2-(2-Cyclopentyl-ethyl)-imidazo[4,5-b]pyridin-3-yl]-phenyl}-ethylamino)-2-hydroxy-propoxy]-phenol]
21 | 90 to 92 °C |  |  | CCCCCCNC(=O)Nc1ccc(CCc2nc3cccnc3n2-c2ccc(CCNC[C@H](O)COc3ccc(O)cc3)cc2)cc1 (hydrate or solvate) [Example 17, 1-Hexyl-3-(4-{2-[3-(4-{2-[(2S)-2-hydroxy-3-(4-hydroxy-phenoxy)-propylamino]-ethyl}-phenyl)-3H-imidazo[4,5-b]pyridin-2-yl]-ethyl}-phenyl)-urea]
